Ends that are not written are not given here.
Experiments:
Assay type in all cases: cell-based
[1] = tested on: Lactobacillus gasseri (FERM BP-11331); experiment: Growth-promoting effect on Lactobacillus gasseri in modified MRS medium (particle count)
Excerpt: Nitrogen sources in MRS medium were reduced to find a medium composition that achieves a total bacterial count of about 1.0×10^8 cell/mL to 1.0×10^9 cell/mL after culturing of each of the six bacterial strains Lactobacillus gasseri (FERNM BP-11331), Lactobacillus acidophilus (FERM BP-4981), Lactobacillus amylovorus (FERM BP-11255), Lactobacillus curvatus (NITE P-02033), Lactobacillus plantarum, and Lactobacillus brevis. This composition, named “modified MRS medium”, was used for the evaluation. Here, for the composition of the MRS medium, a composition described in a medium catalog provided by BD (Becton, Dickinson and Company) was used as a reference. The compositions of the MRS medium and the modified MRS medium are as follows. By chemical synthesis, 28 kinds of candidate peptides having the sequences shown below were provided. Each candidate peptide was added to the modified MRS medium at 0.25 mg/mL to provide a medium to be evaluated. The lactic acid bacterium Lactobacillus gasseri was inoculated at 1.0×10^7 cells/mL to the provided medium to be evaluated, and culture was carried out at a temperature of 37° C. for a culture period of 18 hours. The resulting culture was collected, and subjected to measurement of the particle concentration (particles/mL) as a characteristic value that can be used as an index of the bacterial cell growth, using a particle count analyzer (CDA-1000, Sysmex). The rate of increase (%) was calculated relative to a control value obtained using a medium to which no peptide was added, which was taken as 100%. Using the dipeptide LF (Leu-Phe) and an equimolar mixture of leucine (L) and phenylalanine (F), culture was carried out in the same manner as in Example 1, and the growth-promoting effects of the dipeptide and the amino acid mixture on the lactic acid bacterium were evaluated. Using a dipeptide (LF) as the peptide, the growth-promoting effect on a lactic acid bacterium was evaluated in the same manner except that the concentration of the dipeptide added was 0.1 mg/mL, 0.25 mg/mL, or 1.0 mg/mL.

[2] = tested on: Lactobacillus acidophilus (FERM BP-4981); experiment: Growth-promoting effect on Lactobacillus acidophilus in modified MRS medium (particle count); settings: Example 2, peptide 0.25 mg/mL, 37° C., 18 hours; for Rate of increase: control = 100%
Excerpt: Nitrogen sources in MRS medium were reduced to find a medium composition that achieves a total bacterial count of about 1.0×10^8 cell/mL to 1.0×10^9 cell/mL after culturing of each of the six bacterial strains Lactobacillus gasseri (FERNM BP-11331), Lactobacillus acidophilus (FERM BP-4981), Lactobacillus amylovorus (FERM BP-11255), Lactobacillus curvatus (NITE P-02033), Lactobacillus plantarum, and Lactobacillus brevis. This composition, named “modified MRS medium”, was used for the evaluation. Here, for the composition of the MRS medium, a composition described in a medium catalog provided by BD (Becton, Dickinson and Company) was used as a reference. The compositions of the MRS medium and the modified MRS medium are as follows. By chemical synthesis, 28 kinds of candidate peptides having the sequences shown below were provided. Each candidate peptide was added to the modified MRS medium at 0.25 mg/mL to provide a medium to be evaluated. The lactic acid bacterium Lactobacillus gasseri was inoculated at 1.0×10^7 cells/mL to the provided medium to be evaluated, and culture was carried out at a temperature of 37° C. for a culture period of 18 hours. The resulting culture was collected, and subjected to measurement of the particle concentration (particles/mL) as a characteristic value that can be used as an index of the bacterial cell growth, using a particle count analyzer (CDA-1000, Sysmex). The rate of increase (%) was calculated relative to a control value obtained using a medium to which no peptide was added, which was taken as 100%. For eight kinds of candidate peptides having the sequences shown below, the growth-promoting effect on a lactic acid bacterium was evaluated in the same manner as in Example 1 except that Lactobacillus acidophilus was used instead of Lactobacillus gasseri.

Lactobacillus brevis = experiment: Growth-promoting effect on Lactobacillus brevis in modified MRS medium (particle count); settings: Example 6, peptide 0.25 mg/mL, 37° C., 18 hours; for Rate of increase: control = 100%
Excerpt: Nitrogen sources in MRS medium were reduced to find a medium composition that achieves a total bacterial count of about 1.0×10^8 cell/mL to 1.0×10^9 cell/mL after culturing of each of the six bacterial strains Lactobacillus gasseri (FERNM BP-11331), Lactobacillus acidophilus (FERM BP-4981), Lactobacillus amylovorus (FERM BP-11255), Lactobacillus curvatus (NITE P-02033), Lactobacillus plantarum, and Lactobacillus brevis. This composition, named “modified MRS medium”, was used for the evaluation. Here, for the composition of the MRS medium, a composition described in a medium catalog provided by BD (Becton, Dickinson and Company) was used as a reference. The compositions of the MRS medium and the modified MRS medium are as follows. By chemical synthesis, 28 kinds of candidate peptides having the sequences shown below were provided. Each candidate peptide was added to the modified MRS medium at 0.25 mg/mL to provide a medium to be evaluated. The lactic acid bacterium Lactobacillus gasseri was inoculated at 1.0×10^7 cells/mL to the provided medium to be evaluated, and culture was carried out at a temperature of 37° C. for a culture period of 18 hours. The resulting culture was collected, and subjected to measurement of the particle concentration (particles/mL) as a characteristic value that can be used as an index of the bacterial cell growth, using a particle count analyzer (CDA-1000, Sysmex). The rate of increase (%) was calculated relative to a control value obtained using a medium to which no peptide was added, which was taken as 100%. For eight kinds of candidate peptides having the sequences shown below, the growth-promoting effect on a lactic acid bacterium was evaluated in the same manner as in Example 1 except that Lactobacillus brevis was used instead of Lactobacillus gasseri.

[3] = Example 1, peptide 0.25 mg/mL, 37° C., 18 hours, inoculum 1.0×10^7 cells/mL
[4] = Example 1, peptide 0.25 mg/mL, 37° C., 18 hours, control without peptide = 100%

| Substance | Particle concentration [1, 3] [mL⁻¹] | Rate of increase [1, 4] [%] | Particle concentration [2] [mL⁻¹] | Rate of increase [2] [%] | Particle concentration (Lactobacillus brevis) [mL⁻¹] | Rate of increase (Lactobacillus brevis) [%] | Particle concentration ([1]; Comparative Example 1, dipeptide vs equimolar amino acid mixture, cultured as in Example 1) [mL⁻¹] | Rate of increase ([1]; Comparative Example 1, dipeptide vs equimolar amino acid mixture, control = 100%) [%] | Particle concentration ([1]; Example 7, addition concentration 0.1 mg/mL) [mL⁻¹] | Rate of increase ([1]; Example 7, addition concentration 0.1 mg/mL, control = 100%) [%] | Particle concentration ([1]; Example 7, addition concentration 0.25 mg/mL) [mL⁻¹] | Rate of increase ([1]; Example 7, addition concentration 0.25 mg/mL, control = 100%) [%] | Particle concentration ([1]; Example 7, addition concentration 1.0 mg/mL) [mL⁻¹] | Rate of increase ([1]; Example 7, addition concentration 1.0 mg/mL, control = 100%) [%] |
| --- | --- | --- | --- | --- | --- | --- | --- | --- | --- | --- | --- | --- | --- | --- |
| AGPQTF | 2.5e+08 | 126 | 1.02e+08 | 105 | 1.16e+09 | 106 | – | – | – | – | – | – | – | – |
| APKPDYPIA (listed as Saccharomyces cerevisiae) [Ala-Pro-Lys-Pro-Asp-Tyr-Pro-Ile-Ala] | 2.37e+08 | 137 | 9.73e+07 | 100 | 1.12e+09 | 103 | – | – | – | – | – | – | – | – |
| Leu-Phe [LF] | 2.49e+08 | 118 | 8.75e+07 | 121 | 1.24e+09 | 114 | 3.88e+08 | 121 | 2.38e+08 | 112 | 2.49e+08 | 118 | 3.17e+08 | 150 |
| Leu-Pro-Trp-Gly (LPWG; listed as Saccharomyces cerevisiae) | 2.45e+08 | 142 | 1.03e+08 | 113 | 1.18e+09 | 108 | – | – | – | – | – | – | – | – |
| Pro-Ser-Val-Phe (PSVF; listed as Saccharomyces cerevisiae) | 2.32e+08 | 134 | 1e+08 | 103 | 1.16e+09 | 106 | – | – | – | – | – | – | – | – |
| Pro-Val-Phe [PVF] | 2.51e+08 | 137 | 1.01e+08 | 111 | 1.17e+09 | 107 | – | – | – | – | – | – | – | – |
| Pro-Val-Tyr [PVY] | 2.27e+08 | 121 | 1.1e+08 | 113 | 1.17e+09 | 107 | – | – | – | – | – | – | – | – |
| Val-Pro-Ala-Phe (VPAF; listed as Saccharomyces cerevisiae) | 2.62e+08 | 152 | 1.04e+08 | 113 | 1.16e+09 | 106 | – | – | – | – | – | – | – | – |
